What was measured:
[1] = biological target: T1, Serotonin 3 (5-HT3) receptor (Rattus norvegicus, UniProt P35563+Q9JJ16); test: Binding affinity at 5-hydroxytryptamine 3 receptor in rat entorhinal cortex by [3H]BRL-43694 displacement.; assay type: tissue-based
T1 sequence (P35563 whole entry): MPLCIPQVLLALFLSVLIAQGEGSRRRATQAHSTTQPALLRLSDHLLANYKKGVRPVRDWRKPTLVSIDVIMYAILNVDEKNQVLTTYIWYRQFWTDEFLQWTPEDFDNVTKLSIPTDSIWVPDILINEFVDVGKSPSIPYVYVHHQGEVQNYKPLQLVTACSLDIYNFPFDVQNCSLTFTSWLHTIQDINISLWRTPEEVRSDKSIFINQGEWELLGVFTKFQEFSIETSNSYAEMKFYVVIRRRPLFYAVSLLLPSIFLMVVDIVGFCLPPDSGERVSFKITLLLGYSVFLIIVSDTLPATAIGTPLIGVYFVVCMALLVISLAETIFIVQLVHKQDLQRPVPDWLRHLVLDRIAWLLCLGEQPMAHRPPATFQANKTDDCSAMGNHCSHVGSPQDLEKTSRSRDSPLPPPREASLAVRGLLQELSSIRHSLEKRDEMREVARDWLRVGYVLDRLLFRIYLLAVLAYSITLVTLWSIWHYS
T1 sequence (Q9JJ16 whole entry): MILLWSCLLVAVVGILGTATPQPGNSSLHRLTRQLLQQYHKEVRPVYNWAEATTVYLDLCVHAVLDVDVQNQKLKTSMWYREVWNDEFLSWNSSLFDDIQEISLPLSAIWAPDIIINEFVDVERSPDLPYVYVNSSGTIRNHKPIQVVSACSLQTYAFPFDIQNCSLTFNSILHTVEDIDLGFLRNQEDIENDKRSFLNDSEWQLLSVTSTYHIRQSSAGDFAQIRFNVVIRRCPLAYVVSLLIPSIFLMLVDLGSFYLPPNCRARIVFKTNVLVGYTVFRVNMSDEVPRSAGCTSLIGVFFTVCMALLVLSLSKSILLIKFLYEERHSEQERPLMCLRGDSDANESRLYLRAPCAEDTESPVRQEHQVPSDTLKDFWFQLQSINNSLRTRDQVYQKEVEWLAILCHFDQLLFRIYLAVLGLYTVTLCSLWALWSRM

[2] = biological target: Serotonin 3 (5-HT3) receptor (Rattus norvegicus) (UniProt P35563+Q9JJ16); test: Compound was tested as a 5-hydroxytryptamine 3 receptor antagonist in the rat by assessment of the inhibition of the Bezold-Jarisch effect, when administered intravenously; assay type: functional

Structure (SMILES) | Ki [1] [nM] | ID50 [2] [mg/kg]
O=C1c2ccc3ccccc3c2C(=O)N1[C@@H]1CN2CCC1CC2 | 119 | –
CCOc1ccccc1C(=O)N[C@H]1CN2CCC1CC2 | 100 | –
COc1ccccc1C(=O)N[C@@H]1CN2CCC1CC2 | 23.4 | –
O=C(N[C@@H]1CN2CCC1CC2)c1ccccc1 | 147 | –
O=C1c2ccc3ccccc3c2C(=O)N1[C@H]1CN2CCC1CC2 | 6 | 18.6
Nc1ccc2cccc3c2c1C(=O)N(C1CN2CCC1CC2)C3=O (centres undefined) | 0.15 | –
CCOc1ccccc1C(=O)N[C@@H]1CN2CCC1CC2 | 18.9 | –
CCCOc1ccccc1C(=O)N[C@@H]1CN2CCC1CC2 | 11.2 | –
O=C(N[C@@H]1CN2CCC1CC2)c1cccc2ccccc12 | 32 | –
COc1ccc2ccccc2c1C(=O)NC1CN2CCC1CC2 (centres undefined) | 342 | –
CCCOc1ccccc1C(=O)N[C@H]1CN2CCC1CC2 | 71.6 | –
O=C(N[C@H]1CN2CCC1CC2)c1ccccc1 | 1890 | –
COc1ccccc1C(=O)N[C@H]1CN2CCC1CC2 | 409 | –
